Read-outs that look alike come from different tables or passages of the source.
What was measured:
indicated cell line = assay: Wound healing migration assay (Table IV); assay type: cell-based; conditions: compounds at 12.5, 6.25, 3.125 μM, 48 h-72 h
How it was run: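 Cells seeded at 150000/24 well, grown to monolayer overnight, scratched with a pipette tip, then treated with compound at 12.5, 6.25 or 3.125 μM versus DMSO. Stopped by crystal violet fixation at 48-72 h once control wounds closed; IC50 taken as 50% wound size between t0 and t48 or t72.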

Hs578T [1] = assay: Matrigel outgrowth assay/branching assay; assay type: cell-based; conditions: Homo sapiens, Hs-578T; HS578T cell line; Table Ib; read-out: Total branching inhibition in Matrigel HS578T
How it was run: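 Read-out: microscopic images of invasive branching structures at 48 h, 72 h and 96 h. Cells sat on a 3 mg/ml Matrigel layer (set 1 h, 37° C) with compound at 3.125, 1.56 and 0.78 μM or DMSO. A concentration counts as positive only with complete branching inhibition.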

A172 = assay: Cell vitality assay (ATP assay, CellTiter-Glo); assay type: cell-based; conditions: Homo sapiens, A 172; A172, 72 h; Table IIa; read-out: IC50 ATP-Assay after 72 h A172
How it was run: (§1)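 1000 cells/well incubated 72 h with compound at 12.5 down to 0.195 μM (twofold steps) or DMSO control. Viability measured as cellular ATP by CellTiter-Glo luminescence; IC50 taken as the concentration giving 50% of the DMSO-control ATP level.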

Hs578T [2] = assay: Cell vitality assay (ATP assay, CellTiter-Glo); assay type: cell-based; conditions: Homo sapiens, Hs-578T; HS578T cell line, 72 h; Table Ib; read-out: IC50 ATP-Assay HS578T after 72 h
How it was run: as §1

U118 = assay: Cell vitality assay (ATP assay, CellTiter-Glo); assay type: cell-based; conditions: U118, 72 h; Table IIa; read-out: IC50 ATP-Assay after 72 h U118
How it was run: as §1

SF126 = assay: Cell vitality assay (ATP assay, CellTiter-Glo); assay type: cell-based; conditions: Homo sapiens, SF-126; SF126, 72 h; Table IIa; read-out: IC50 ATP-Assay after 72 h SF126
How it was run: as §1

[3] = Homo sapiens, A 172, A172 cells, read-out: IC50 Wound healing Assay A172
[4] = Homo sapiens, SF-126, SF126 cells, read-out: IC50 Wound healing Assay SF126
[5] = U118 cells, read-out: IC50 Wound healing Assay U118

SMILES	IC50 (indicated cell line; [3]) [µM]	IC50 (indicated cell line; [4]) [µM]	IC50 (indicated cell line; [5]) [µM]	IC50 (Hs578T [1]) [µM]	IC50 (A172) [µM]	IC50 (Hs578T [2]) [µM]	IC50 (U118) [µM]	IC50 (SF126) [µM]	melting point [°C]
COC(=O)c1sccc1S(=O)(=O)Nc1ccc(Oc2ccnc3cc(OCCCN4CCOCC4)c(OC)cc23)c(F)c1 [Example 157, 3-{3-Fluoro-4-[6-methoxy-7-(3-morpholin-4-yl-propoxy)-quinolin-4-yloxy]-phenylsulfamoyl}-thiophene-2-carboxylic acid methyl ester]	≤ 12.5	≤ 12.5	≤ 12.5	10 to 25	≤ 12.5	≤ 12.5	≤ 12.5	≤ 12.5	167 to 168
COc1cc2c(Oc3ccc(NS(=O)(=O)c4c(Cl)cccc4Cl)cc3F)ccnc2cc1OCCCN1CCCCC1 [Example 6, 2,6-Dichloro-N-{3-fluoro-4-[6-methoxy-7-(3-piperidin-1-yl-propoxy)-quinolin-4-yloxy]-phenyl}-benzenesulfonamide]	≤ 12.5	≤ 12.5	≤ 12.5	≤ 10	≤ 12.5	≤ 12.5	≤ 12.5	≤ 12.5	206 to 208
COc1cc2c(Oc3ccc(NS(=O)(=O)c4ccccc4OC(F)(F)F)cc3F)ccnc2cc1OCCCN(C)C [Example 179, N-{4-[7-(3-Dimethylamino-propoxy)-6-methoxy-quinolin-4-yloxy]-3-fluoro-phenyl}-2-trifluoromethoxy-benzenesulfonamide]	≤ 12.5	≤ 12.5	12.5 to 50	10 to 25	≤ 12.5	≤ 12.5	≤ 12.5	≤ 12.5	94 to 96
COC(=O)c1sccc1S(=O)(=O)Nc1ccc(Oc2ccnc3cc(OCCCN4CCN(C)CC4)c(OC)cc23)c(F)c1 [Example 158, 3-(3-Fluoro-4-{6-methoxy-7-[3-(4-methyl-piperazin-1-yl)-propoxy]-quinolin-4-yloxy}-phenylsulfamoyl)-thiophene-2-carboxylic acid methyl ester]	≤ 12.5	≤ 12.5	≤ 12.5	10 to 25	≤ 12.5	≤ 12.5	≤ 12.5	≤ 12.5	146 to 148
COc1cc2c(Oc3ccc(NS(=O)(=O)c4c(Cl)cccc4Cl)cc3F)ccnc2cc1OCCCN(C)C [Example 181, 2,6-Dichloro-N-{4-[7-(3-dimethylamino-propoxy)-6-methoxy-quinolin-4-yloxy]-3-fluoro-phenyl}-benzenesulfonamide]	≤ 12.5	≤ 12.5	≤ 12.5	≤ 10	≤ 12.5	≤ 12.5	≤ 12.5	≤ 12.5	197 to 198
COc1cc2c(Oc3ccc(NS(=O)(=O)c4c(F)cccc4F)cc3F)ccnc2cc1OCCCN1CCCCC1 [Example 11, 2,6-Difluoro-N-{3-fluoro-4-[6-methoxy-7-(3-piperidin-1-yl-propoxy)-quinolin-4-yloxy]-phenyl}-benzenesulfonamide]	12.5 to 50	≤ 12.5	12.5 to 50	10 to 25	12.5 to 50	≤ 12.5	12.5 to 50	12.5 to 50	242 to 244
COc1cc2c(Oc3ccc(NS(=O)(=O)c4ccccc4OC(F)(F)F)cc3F)ccnc2cc1OCCCN1CCCCC1 [Example 78, N-{3-Fluoro-4-[6-methoxy-7-(3-piperidin-1-yl-propoxy)-quinolin-4-yloxy]-phenyl}-2-trifluoromethoxy-benzenesulfonamide]	≤ 12.5	≤ 12.5	≤ 12.5	≤ 10	≤ 12.5	≤ 12.5	≤ 12.5	≤ 12.5	156 to 158
COC(=O)c1sccc1S(=O)(=O)Nc1ccc(Oc2ccnc3cc(OCCCN4CCCCC4)c(OC)cc23)c(F)c1 [Example 155, 3-{3-Fluoro-4-[6-methoxy-7-(3-piperidin-1-yl-propoxy)-quinolin-4-yloxy]-phenylsulfamoyl}-thiophene-2-carboxylic acid methyl ester]	≤ 12.5	≤ 12.5	≤ 12.5	10 to 25	≤ 12.5	≤ 12.5	≤ 12.5	≤ 12.5	138 to 139
COc1cc2c(Oc3ccc(NS(=O)(=O)c4c(Cl)cccc4Cl)cc3F)ccnc2cc1OCCCN1CCCC(C)C1 (stereo not drawn) [Example 51, 2,6-Dichloro-N-(3-fluoro-4-{6-methoxy-7-[3-(3-methyl-piperidin-1-yl)-propoxy]-quinolin-4-yloxy}-phenyl)-benzenesulfonamide]	≤ 12.5	≤ 12.5	≤ 12.5	≤ 10	≤ 12.5	≤ 12.5	≤ 12.5	≤ 12.5	119 to 121
COc1cc2c(Oc3ccc(NS(=O)(=O)c4c(Cl)cccc4Cl)cc3F)ccnc2cc1OCCN1CCOCC1 [Example 104, 2,6-Dichloro-N-{3-fluoro-4-[6-methoxy-7-(2-morpholin-4-yl-ethoxy)-quinolin-4-yloxy]-phenyl}-benzenesulfonamide]	12.5 to 50	≤ 12.5	≤ 12.5	10 to 25	12.5 to 50	≤ 12.5	12.5 to 50	12.5 to 50	210 to 211
COc1cc2c(Oc3c(Cl)cc(NS(=O)(=O)c4ccccc4C(F)(F)F)cc3Cl)ccnc2cc1OCCCN1CCC(C)CC1 [Example 210, N-(3,5-Dichloro-4-{6-methoxy-7-[3-(4-methyl-piperidin-1-yl)-propoxy]-quinolin-4-yloxy}-phenyl)-2-trifluoromethyl-benzenesulfonamide]	≤ 12.5	≤ 12.5	≤ 12.5	≤ 10	≤ 12.5	≤ 12.5	≤ 12.5	≤ 12.5	148 to 151
COC(=O)c1sccc1S(=O)(=O)Nc1ccc(Oc2ccnc3cc(OCCCN(C)C)c(OC)cc23)c(F)c1 [Example 184, 3-{4-[7-(3-Dimethylamino-propoxy)-6-methoxy-quinolin-4-yloxy]-3-fluoro-phenylsulfamoyl}-thiophene-2-carboxylic acid methyl ester]	≤ 12.5	≤ 12.5	≤ 12.5	10 to 25	≤ 12.5	≤ 12.5	≤ 12.5	≤ 12.5	80 to 82
COc1cc2c(Oc3ccc(NS(=O)(=O)c4ccc(F)c(F)c4F)cc3F)ccnc2cc1OCCCN1CCCC(C)C1 (stereo not drawn) [Example 49, 2,3,4-Trifluoro-N-(3-fluoro-4-{6-methoxy-7-[3-(3-methyl-piperidin-1-yl)-propoxy]-quinolin-4-yloxy}-phenyl)-benzenesulfonamide]	≤ 12.5	≤ 12.5	≤ 12.5	10 to 25	≤ 12.5	≤ 12.5	≤ 12.5	≤ 12.5	134 to 136
COc1cc2c(Oc3ccc(NS(=O)(=O)c4c(Cl)cccc4Cl)cc3Cl)ccnc2cc1OCCCN1CCN(C)CC1 [Example 119, 2,6-Dichloro-N-(3-chloro-4-{6-methoxy-7-[3-(4-methyl-piperazin-1-yl)-propoxy]-quinolin-4-yloxy}-phenyl)-benzenesulfonamide]	≤ 12.5	≤ 12.5	≤ 12.5	≤ 10	≤ 12.5	≤ 12.5	≤ 12.5	≤ 12.5	171 to 172
COc1cc2c(Oc3ccc(NS(=O)(=O)c4ccccc4OC(F)(F)F)cc3F)ccnc2cc1OCCCN1CCCC(C)C1 (stereo not drawn) [Example 45, N-(3-Fluoro-4-{6-methoxy-7-[3-(3-methyl-piperidin-1-yl)-propoxy]-quinolin-4-yloxy}-phenyl)-2-trifluoromethoxy-benzenesulfonamide]	≤ 12.5	≤ 12.5	≤ 12.5	≤ 10	≤ 12.5	≤ 12.5	≤ 12.5	≤ 12.5	128 to 130
